Measurements published in patent US12240890B2, “Compositions and methods for treating and/or preventing pathogenic fungal infection and for maintenance of microbiome commensalism” (priority 2017, dated 2025).
“And” between values parts separate entries of the source, which are not always exact repeats. Equal entries are not always repeated. No end group written: not given here.

Legend:
[1] = test system: C. albicans strain SC5314; assay: crystal violet based biofilm assay (24 hours, OD600); assay type: cell-based, Candida albicans; conditions: for Mean Normalized to vehicle control: biofilm OD600 values normalized to vehicle control, 24 hours; for efficacy in inhibiting formation of biofilm relative to PYY13-36: in vitro, Candida albicans; for inhibition of biofilm formation: crystal violet staining, 10-20 uM of respective peptides
Method: FIG. 13. […] Biofilm formation was measured in an assay that quantitates biofilms by staining with a crystal violet dye. The amount of dye absorbed by the biofilm positively correlates with amount of biofilm present. Amount of dye is measured via an optical density reading at a wavelength of 600 nm (OD600). Biofilm formation is measured over 24 hours in the presence or absence of peptides at 10, 30, or 40 uM concentrations.
(§1) Candida albicans (sc3514 cited in: Romanowski et al. PLOS One 7: e30119, 2012.: incorporated by reference in its entirety) and Candida tropicalis (ATCC #13803) were maintained in frozen glycerol stocks at −80° C. and streaked out on yeast-peptone-dextrose (YPD) agar plates for 48 hours at 30° C. prior to use. Single colonies were selected and cultured in YPD media at 30° C. Biofilm assays were performed using crystal violet straining (Taff et al. Med Mycol 50:214-218, 2012.: incorporated by reference in its entirety) in the presence of 10-20 uM of respective peptides. To induce hyphal growth, strains were placed in YPD+5% FBS or RPMI media at 37° C. for 4 hours. To image hyphal membrane disruption, the DNA binding fluorescent dye, propidium iodide (PI), was added to wells strains in the presence of peptides and imaged under bright field and far red fluorescent conditions. […] To investigate Candida albican virulence gene expression, 10 μL of a 1.0 OD600 culture were placed in 1 mL RPMI at 37° C. with shaking for 8 hours. Cultures were centrifuged at 3000×g for 5 minutes and RNA isolation was performed as described below.
Antifungal activity of peptides described in this application was tested by performing a crystal violet based biofilm assay. In this assay, Candida albicans is induced to form a biofilm in a 96-well plate for 24 hours in the presence or absence of peptide. Biofilm formation is quantitated through crystal violet staining and solubilization followed by optical density reading. […] Data are OD600 values normalized to appropriate within experiment vehicle control. Statistical analysis was performed via 2-Way ANOVA with multiple comparisons post-test. Significance is denoted by: *=p<0.05; **=p<0.01; ***-p<0.001; ****=p<0.0001. ns=not significant.

Candida albicans hyphae = assay: propidium iodide hyphal permeability assay; assay type: cell-based; conditions: N terminus FITC label, during PI assay
Method: as §1
Magainin-2 compromises fungal growth by inserting into and permeabilizing the fungal cell wall. […] Permeabilization of the fungal cell wall was determined by uptake of propidium iodide (PI), a dye that is excluded by intact viable cells. […]

PYY = assay: ex vivo ileal tissue culture and PYY ELISA; design: species or system mice
Method: Tissues were harvested from conventional or germ-free WT mice. Three cm sections of distal ileum were dissected from the mesentery and ligated on one end. Next, Krebs buffer (pH 7.4) was inoculated with either LPS (100 ng/mL) or Carbamoylcholine (10 um) and sealed in the ileal section and incubated in Krebs at 37° C. for 30 minutes. Next, the luminal solutions were retrieved and centrifuged at 3000×g for 3 minutes to remove particulate.

Candida albicans = Candida albicans culture growth; assay type: cell-based; conditions: hyphal inducing conditions (broth culture containing serum)

Substance	Mean Normalized to vehicle control ([1]; 10 μM peptide)	Mean Normalized to vehicle control ([1]; 30 μM peptide)	Mean Normalized to vehicle control ([1]; 40 μM peptide)	also measured
ASPEELNRYYASLRHYLNLVTRQRY [AVpeptide 18, (12-36)]	1.11	0.16	0.05	
FITC-labeled PYY: fluorescently (N terminus FITC) labeled PYY				localization of labeled peptide (Candida albicans hyphae): localized exclusively to the same terminal hyphal cells that take up PI
LPDELNRYYASLRKYLNLVTRQRY [AVpeptide 25, (S13L, E15D, H26K)]		0.01 and 0.02		inhibition of biofilm formation at concentrations lower than PYY13-36 [1]: greatly inhibited biofilm formation by C. albicans at concentrations lower than PYY13-36; efficacy in inhibiting formation of biofilm relative to PYY13-36 [1]: increased inhibition of biofilm formation
LPEELNRYYASLRHYLNLVTRQLY [AVpeptide 11, (S13L; R35L)]			0.99	
LPEELNRYYASLRHYLNLVTRQRY [AVpeptide 10, (S13L)]			0.17	
LPEELNRYYASLRHYLRLVTRQLY [AVpeptide 23, (S13L, N29R, R35L)]	0.03			inhibition of biofilm formation at concentrations lower than PYY13-36 [1]: greatly inhibited biofilm formation by C. albicans at concentrations lower than PYY13-36; efficacy in inhibiting formation of biofilm relative to PYY13-36 [1]: increased inhibition of biofilm formation
LPS				luminal PYY release (PYY; Germ-free (GF) tissues): released only in response to Carb; luminal PYY release (PYY; Specific-Pathogen Free (SPF) tissues): released PYY
PEELNRYYASLRHYLNAVTRQLA [AVpeptide 4, (14-36, L30A; R35L; Y36A)]	1.04 and 0.98	0.89 and 0.94	0.88	
PEELNRYYASLRHYLNAVTRQRY [AVpeptide 2, (14-36, L30A)]	1.05 and 1.02	0.91 and 1.08	1.01	
PEELNRYYASLRHYLNLVTRQLY [AVpeptide 1, (14-36; R35L)]	0.96 and 0.95	0.74 and 0.40	0.14	
PEELNRYYASLRHYLNLVTRQRA [AVpeptide 3, (14-36, Y36A)]	1.00 and 0.94	0.90 and 0.93	0.91	
PYY1-12: N-terminal PYY fragment used as inactive comparison peptide (YPIKPEAPREDA; Peptide YY; UniProt P10082 29-40, looked up, fragment) [reference compound]				inhibition of biofilm formation [1]: not a scrambled peptide control or PYY1-12, were capable of blocking biofilm formation
PYY1-13: PYY peptide composed of amino acids 1-13 (YPIKPEAPGEDAS)				C. albicans culture growth (Candida albicans): displayed no antifungal properties
PYY14-36 Modified: PYY14-36 with Arginine replaced by Alanine (PEELNAYYASLAHYLNLVTAQAY; ends and bridges not checked) [reference compound]				inhibition of biofilm formation [1]: reduced the inhibitory effect
PYY 1-36 Modified: PYY with charge modified by replacing Arginine with Alanine (YPIKPEAPGEDASPEELNAYYASLAHYLNLVTAQAY; ends and bridges not checked) [reference compound]				inhibition of biofilm formation [1]: reduced the inhibitory effect
SPDELNRYYASLRKYLNLVTRQRY [AVpeptide 14, (E15D, H26K)]	0.82	0.07	0.07	
SPEELNKYYASLRHYLNLVTRQRY [AVpeptide 27, (R19K)]	0.66	0.08		
SPEELNRLLASLRHLLNLVTRQRY [AVpeptide 32, (Y20L, Y21L, Y27L)]				efficacy in inhibiting formation of biofilm relative to PYY13-36 [1]: increased inhibition of biofilm formation
SPEELNRYLASLRHYLNLVTRQRY [AVpeptide 28, (Y21L)]		0.09 and 0.17		

Substance	Mean Normalized to vehicle control ([1]; 10 μM peptide)	Mean Normalized to vehicle control ([1]; 30 μM peptide)	Mean Normalized to vehicle control ([1]; 40 μM peptide)	also measured
SPEELNRYYASLRHYINLVTRQRY [AVpeptide 29, (L28I)]	0.58	0.04		
SPEELNRYYASLRHYLNLVTRQ [AVpeptide 15, (13-34)]	0.96	0.78	0.69	
SPEELNRYYASLRHYLNLVTRQLR [AVpeptide 6]	0.97	0.52	0.28	efficacy in inhibiting formation of biofilm relative to PYY13-36 [1]: reduced efficacy
SPEELNRYYASLRHYLNLVTRQLY [AVpeptide 21, (R35L)]	0.92	0.02		
SPEELNRYYASLRHYLNLVTRQR [AVpeptide 24, (PYY13-35)]	0.83	0.71		efficacy in inhibiting formation of biofilm relative to PYY13-36 [1]: reduced efficacy
SPEELNRYYASLRHYLNLVTRQRR [AVpeptide 5, (Y36R)]	0.64 and 0.76	0.28 and 0.53		
SPEELNRYYASLRHYLNLVTRQVY [AVpeptide 8, (R35V)]	0.97	0.71	0.31	efficacy in inhibiting formation of biofilm relative to PYY13-36 [1]: reduced efficacy
SPEELNRYYASLRHYLNLVTRQYY [AVpeptide 7, (R35Y)]	0.97	0.08	0.33	
SPEELNRYYASLRHYLRLVTRQLY [AVpeptide 9, (N29R; R35L)]			0.05	
SPEELNRYYASLRHYLRLVTRQRY [AVpeptide 22, (N29R)]	0.84	0.37		
SPEELNRYYASLRHYYNLVTRQRY [AVpeptide 12, (L28Y)]	1.01	0.46	0.15	
SPEELNRYYASSRHYLNLVTRQRY [AVpeptide 19, (L24S)]	1.06	1.01	0.97	efficacy in inhibiting formation of biofilm relative to PYY13-36 [1]: reduced efficacy
SPEELNRYYLALRHYLNLVTRQRY [AVpeptide 31, (A22L, S23A)]	0.05	1.00		
SPEELNRYYLSLRHYLNLVTRQRY [AVpeptide 20, (A22L)]	0.47 and 0.52 and 0.62	1.07 and 1.25 and 1.03	1.04	efficacy in inhibiting formation of biofilm relative to PYY13-36 [1]: increased inhibition of biofilm formation
SPEELNRYYTALRHYLNLVTRQRY [AVpeptide 30, (A22T, S23A)]	0.16 and 0.10	0.02		
SPEQLNRYYASLRHYLNLVTRERY [AVpeptide 13, (E16Q, Q34A)]	0.95	0.14	0.07	
YPEEYNRYYASYRHYLNHVTRQRY [AVpeptide 16, (S13Y L17Y L24Y L30H)]	1.06	1.02	0.95	
YPEEYNRYYASYRHYLNLVTRQRY [AVpeptide 17, (S13Y L17Y L24Y)]	0.91	0.94		
